These results are taken from PMC7939467, “Ascertaining the biochemical function of an essential pectin methylesterase in the gut microbe Bacteroides thetaiotaomicron” (The Journal of Biological Chemistry, 2021).

Assay [1] concerns the target T1, BT1017-CM (Bacteroides thetaiotaomicron, UniProt Q8A900).
T1 construct: gene BT_1017; crystal model residues 20-462 (text also gives module as 20-400); C-terminal His6; E. coli Tuner(DE3)
T1 sequence (Q8A900 20-462): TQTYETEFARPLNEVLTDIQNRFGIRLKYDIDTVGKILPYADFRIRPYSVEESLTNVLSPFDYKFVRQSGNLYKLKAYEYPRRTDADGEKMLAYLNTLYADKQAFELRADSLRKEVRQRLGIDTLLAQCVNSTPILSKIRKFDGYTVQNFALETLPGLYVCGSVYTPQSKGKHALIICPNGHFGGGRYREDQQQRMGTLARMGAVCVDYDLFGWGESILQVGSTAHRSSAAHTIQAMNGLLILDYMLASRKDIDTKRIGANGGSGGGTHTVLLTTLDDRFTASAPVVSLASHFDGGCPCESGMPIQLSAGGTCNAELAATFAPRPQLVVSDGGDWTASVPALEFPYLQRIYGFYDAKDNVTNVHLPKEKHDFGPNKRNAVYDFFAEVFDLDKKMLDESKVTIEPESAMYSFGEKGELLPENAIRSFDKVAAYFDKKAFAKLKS
The assay can be described thus: coupled spectrophotometric methanol release assay. The note with it: 1.7 μM enzyme, pH and temperature not given (optimum pH 8.5, 37 °C), read-out: BT1017 constructs / BT1017-CM. In kind it is biochemical. An excerpt: coupled spectrophotometric methanol release assay on BT1017-CM

The target in assay [2] is T2, BT1017-SP (Bacteroides thetaiotaomicron, UniProt Q8A900).
T2 construct: gene BT_1017
T2 sequence (Q8A900 21-653): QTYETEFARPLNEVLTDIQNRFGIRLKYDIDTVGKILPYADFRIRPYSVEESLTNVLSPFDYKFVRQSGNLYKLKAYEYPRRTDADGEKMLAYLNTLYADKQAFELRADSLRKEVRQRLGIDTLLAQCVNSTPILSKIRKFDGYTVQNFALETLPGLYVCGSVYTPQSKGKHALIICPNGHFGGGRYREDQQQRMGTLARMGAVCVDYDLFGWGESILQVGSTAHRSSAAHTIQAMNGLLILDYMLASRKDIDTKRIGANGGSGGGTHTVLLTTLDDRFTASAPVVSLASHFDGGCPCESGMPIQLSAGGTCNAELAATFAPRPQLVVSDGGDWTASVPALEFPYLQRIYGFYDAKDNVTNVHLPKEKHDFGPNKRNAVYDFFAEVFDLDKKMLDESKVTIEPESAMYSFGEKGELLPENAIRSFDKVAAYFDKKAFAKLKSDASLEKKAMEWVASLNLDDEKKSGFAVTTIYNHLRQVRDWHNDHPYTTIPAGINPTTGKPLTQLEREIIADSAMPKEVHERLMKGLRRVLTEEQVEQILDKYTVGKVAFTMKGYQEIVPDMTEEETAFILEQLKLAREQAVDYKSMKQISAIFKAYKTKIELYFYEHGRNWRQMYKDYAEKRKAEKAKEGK
Put plainly: coupled spectrophotometric methanol release assay. In kind it is biochemical. The conditions noted are these: 1.7 μM enzyme, read-out: BT1017 constructs / BT1017-SP. An excerpt:
coupled spectrophotometric methanol release assay on BT1017-SP

Where two headings read alike, the source gives them in different places.

For the substance “GlcA-β1,4-(2-O-Me-Xyl-α1,3)-Fuc-α1,4-(GalA-β1,3)-Rha-α1,3-Api-β1,2-(Araf-α1,3)-(GalA-α1,4)-GalA [ΔBT1017oligoB]”, the Km is 400 ± 70 µM in assay [1] (0.046–1.38 mM substrate); 200 ± 30 µM in assay [2] (0.046–1.38 mM substrate, pH and temperature of the kinetics not stated (optimum pH 8.5, 37 °C)).
Regarding “Rha-α1,3-Api-β1,2-(Araf-α1,3)-(6-O-Me-GalA-α1,4)-GalA [ΔBT1017oligoA]”, the Km was determined as 1000 ± 200 µM in assay [1] (0.09–3.47 mM substrate); 3000 ± 400 µM in assay [2] (0.09–3.47 mM substrate, pH and temperature not given (optimum pH 8.5, 37 °C)).
